Test results from US8697140B2, “Virucidal disinfectant” (priority 2005, dated 2014).
“And” between values parts separate entries of the source, which are not always exact repeats. Identical values can stand only once.

Columns and labels:
poliovirus = conditions: cited from earlier work
[1] = system: poliovirus (polio vaccination strain type I, strain LSc-2ab)

Row | Structure (SMILES) | Effectiveness against poliovirus (poliovirus) | Reduction of poliovirus titer [1]
1 | O=P(O)(O)O [phosphoric acid] | ineffective | 
2 | C=O [formaldehyde solution, formaldehyde] |  | 1.25 log10 steps and 2.13 log10 steps
